Test results reported in patent US20050032124A1, “Identification of genotype-selective agents for treating Huntington's disease” (priority 2003, published 2005).
Converted amounts (≈) assume the structure as drawn. Where two headings read alike, the source gives them in different places.

Assays:
[1] = tested on: BJ-TERT/p53DD/CDK4^R24C/D1/ST/RAS^V12 cells; assay: Calcein AM viability assay, dilution-series retest; type: cell-based; conditions: Homo sapiens, 48 h, read-out: IC50, BJ-TERT/p53DD/CDK4^R24C/cyclineD1/ST/Ras^V12
Source text: These engineered tumorigenic cells make use of dominantly acting viral oncoproteins such as LT, ST, E6 and E7. These viral proteins are possibly involved in cell transformation in specific forms of cancer, namely simian virus 40-induced malignant mesothelioma (Testa and Giordano, 2001, Semin Cancer Biol 11, 31-8) and human papillomavirus-induced cervical carcinoma (Bosch et al., 2002, J Clin Pathol 55, 244-65), and have been used to disrupt p53 and pRB function to transform cells in vitro and in vivo (Elenbaas et al., 2001, Genes Dev 15, 50-65; Jorcyk et al., 1998, Prostate 34, 10-22; Perez-Stable et al., 1997, Cancer Res 57, 900-6; Rich et al., 2001, Cancer Res 61, 3556-60; Sandmoller et al., 1995, Cell Growth Differ 6, 97-103). Applicants made use of these two different methods for inactivating cellular proteins, (they tested the effects of both LT and E6/E7-based inactivation of pRB and p53) in order to control for idiosyncratic effects that might be observed with a specific viral protein. The selectivity of these compounds was also confirmed in a cell line expressing dominant negative inhibitors of p53 and pRB that are not derived from viral elements. This cell line expresses (i) a truncated form of p53 (p53DD) that disrupts tetramerization of endogenous p53, (ii) a CDK4^R24C mutant resistant to inhibition by p16^INK4A and p15^INK4B (the major negative regulators of CDK4) and (iii) cyclin D1. The effects of the nine genotype-selective compounds were tested at a range of concentrations in these cells, which are referred to as BJ-TERT/ p53DD/CDK4^R24C/D1/ST/RAS^V12 cells (Table 1). […] However, the overall results of the analysis were unchanged by the use of non-viral proteins in this cell line (Table 1).
Calcein acetoxylmethyl ester (AM) is a cell membrane-permeable, non-fluorescent compound that is cleaved by intracellular esterases to form the anionic, cell-impermeable, fluorescent compound calcein. Viable cells are stained by calcein because of the presence of intracellular esterases and because the intact plasma membrane prevents fluorescent calcein from leaking out of cells (Wang et al., 1993, supra). Cells were seeded in 384-well plates using a Zymark Sciclone ALH, treated with each compound in triplicate at 4 μg/mL in the primary screen for two days, washed with phosphate-buffered saline on a Packard Minitrak with a 384-well washer and incubated for four hours with 0.7 μg/mL calcein (Molecular Probes). Total fluorescence intensity in each well was recorded on a Packard Fusion platereader, and converted to a percent inhibition of signal by subtracting the instrument background and dividing by the average signal obtained when cells were not treated with any compound.
Replica daughter plates were prepared with a Zymark Sciclone ALH and integrated Twister II by diluting stock plates 50 fold in medium lacking serum and pen/strep to obtain a compound concentration in daughter plates of 80 μg/ml with 2% DMSO. Assay plates were prepared by seeding cells in black, clear bottom 384-well plates in columns 1-23 (6000 cells/well in 57 μl) using a syringe bulk dispenser. Columns 3-22 were treated with compounds from a daughter library plate by transferring 3 μl from the daughter library plate using 384-position fixed cannula array. The final compound concentrations in assay plates were thus 4 μg/ml. The assay plates were incubated for 48 hours at 37° C. in humidified incubator containing 5% CO2. Plate processing for the calcein AM viability assay was performed using an integrated Minitrak/Sidetrak robotic system from Packard Bioscience (Perkin Elmer). Assay plates were washed with phosphate buffered saline, and 20 μl of calcein AM (0.7 μg/ml) per well was added. Plates were incubated at room temperature for 4 hours. Fluorescence intensity was determined using a Fusion platereader with filters centered on an excitation of 485 nm and an emission of 535 nm.
Compounds to be retested were purchased from manufacturers. […]

[2] = tested on: BJ-TERT/LT/ST/RAS^V12 cells; assay: Annexin V-FITC apoptosis assay; type: cell-based, human; conditions: untreated 6%
Description: BJ-TERT/LT/ST/RAS^V12 cells were seeded at 1×10^6 cells per dish in 100 mm dishes and allowed to grow overnight. Cells were treated with erastin (5 or 10 μg/ml) for 6, 8 or 11 h. A camptothecin-treated (0.4 μg/ml) control was maintained, treated at the time of seeding for 20 hours. After the treatment, cells were harvested with trypsin/EDTA and washed once with fresh medium containing serum and then twice with phosphate buffered saline. Cells were resuspended in 1× binding buffer (BD Pharmingen) at a concentration of 1×10^6 cells/mi. 100 μl (1×10^5 cells) was incubated with 5 μl of Annexin V- FITC (BD Pharmingen) and propidium iodiode (BD Pharmingen) for 15 minutes in the dark at room temperature. Then 400 μl of the 1× binding buffer was added and the cells analyzed by flow cytometry (Becton-Dickinson). Data were acquired and analyzed using Cellquest software.

reactive oxygen species = assay: ROS analysis, flow cytometry using H2DCF-DA; type: cell-based, human; conditions: engineered cells
Source text: 2′7′ dichlorodihydrofluorescein diacetate (H2DCF-DA) is a non-fluorescent cell permeable compound. The endogenous esterase enzyme inside the cell cleaves the diacetate part, and it can no longer pass out of the cell. Thus it accumulates in the cell. Then H2DCF reacts with ROS to form fluorescent dichlorofluorescene (DCF) which can be measured by flow cytometry in FL1 channel. • 1. Seed cells at 3×10^5 cells per dish in 60 mm dishes and allow to grow overnight. • 2. Treat with the test compound for different period of time (1-10 hr). • 3. Maintain one dish for untreated cells, compound treated cell and positive control dish (hydrogen peroxide treated) for each time point. • 4. Incubate the cells with 10 μM of H2DCF-DA for 10 minutes at 37° C. • 5. For positive control cells, after 5 minutes of H2DCF-DA loading, add 500 μM of hydrogen peroxide and incubate for 5 minutes further. • 6. Harvest the cell by trypsinization. • 7. Wash with cold PBS-twice. • 8. Resuspend the pellet in 100 μl of PBS and transfer into 5 ml FACS tube. • 9. Add 5 μl of propidium iodide (50 μg/ml) and incubate for 10 minutes on ice in dark. • 10. Add 400 μl of PBS and analyze by flow cytometry (Becton-Dickinson). • 11. Acquire the data and analyze using CellQuest software program. • 12. Take only propidium iodiode negative cells (viable cells) for the analysis for DCF staining using the FLI channel, PI in FL3 channel, plot a quadrant chart.

[3] = BJ-TERT/p53DD/CDK4^R24C/cyclineD1/ST/Ras^V12 cells, 16-point two-fold dilution, two days

SMILES | IC50 [1, 3] | IC50 [1] | formation of reactive oxygen species (ROS) (reactive oxygen species) | other results
CCOc1ccccc1-n1c(C(C)N2CCN(C(=O)COc3ccc(Cl)cc3)CC2)nc2ccccc2c1=O (stereo not shown) [Erastin] | 2.5 µg/mL (≈ 4.57 µM) | – | – | percentage of cells in the M1 region (Annexin V staining) ([2]; erastin-treated (9 μM)): 6%
COc1cccc2c1C(=O)c1c(O)c3c(c(O)c1C2=O)C[C@@](O)(C(C)=O)C[C@@H]3O[C@H]1C[C@H](N)[C@H](O)[C@H](C)O1 [Daunorubicin] | – | 0.625 µg/mL (≈ 1.18 µM) | did not observe the formation of ROS | –
COc1ccc(C[C@H]2C(=O)N[C@@H](C)C(=O)N(C)[C@@H]3C(=O)N(C)[C@@H](Cc4ccc(O)c(c4)Oc4ccc(cc4)[C@@H]3O)C(=O)N[C@H](C)C(=O)N[C@@H](C)C(=O)N2C)cc1 [Bouvardin] | – | 0.156 µg/mL (≈ 0.202 µM) | – | –
O=C1c2c(O)ccc(O)c2C(=O)c2c(NCCNCCO)ccc(NCCNCCO)c21 [Mitoxantrone] | 1.25 µg/mL (≈ 2.81 µM) | – | did not observe the formation of ROS | –
CC[C@@]1(O)C(=O)OCc2c1cc1n(c2=O)Cc2cc3ccccc3nc2-1 [Camptothecin] | 1.25 µg/mL (≈ 3.59 µM) | – | – | percentage of cells in the M1 region (Annexin V staining) ([2]; camptothecin-treated (1 μM)): 38%
COc1cccc2c1C(=O)c1c(O)c3c(c(O)c1C2=O)C[C@@](O)(C(=O)CO)C[C@@H]3O[C@H]1C[C@H](N)[C@H](O)[C@H](C)O1 [Doxorubicin] | 1.25 µg/mL (≈ 2.3 µM) | – | did not observe the formation of ROS | –
NC(=O)c1cn([C@@H]2O[C@H](CO)[C@@H](O)[C@H]2O)c2ncnc(N)c12 [Sangivamycin] | – | 0.078 µg/mL (≈ 0.252 µM) | – | –
CS[C@H]1SC[C@H]2C(=O)N(C)[C@@H](C(C)C)C(=O)OC[C@@H](NC(=O)c3cnc4ccccc4n3)C(=O)N[C@@H](C)C(=O)N(C)[C@@H]1C(=O)N(C)[C@@H](C(C)C)C(=O)OC[C@@H](NC(=O)c1cnc3ccccc3n1)C(=O)N[C@@H](C)C(=O)N2C [Echinomycin] | – | 0.078 µg/mL (≈ 0.0708 µM) | – | –
